# In ChEMBL document CHEMBL5604066, “ASAP - DENV-4 NS2B-NS3 protease fluorescence dose response” (2024):
# Target: T1, NS3 protease (dengue virus type 4, UniProt A0A0K0TQ36)
# T1 sequence (A0A0K0TQ36 whole entry): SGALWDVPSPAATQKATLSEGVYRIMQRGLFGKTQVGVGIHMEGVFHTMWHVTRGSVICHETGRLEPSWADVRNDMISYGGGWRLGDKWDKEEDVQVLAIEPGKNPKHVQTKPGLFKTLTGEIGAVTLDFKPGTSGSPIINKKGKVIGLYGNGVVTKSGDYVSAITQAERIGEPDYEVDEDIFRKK
# Test: Functional biochemical assay to identify treatments for viral infectious disease that targets Dengue virus type 4 NS2B-NS3 protease. Utilizing a direct enzyme activity measurement method, reading the fluorescence intensity is used to characterize the relative potency of inhibitors as IC50.
# Set-up: species or system Philippines/H241/1956
row,SMILES,IC50
1,O=C(Nc1cc(Cl)cc([C@H]2C[C@@H]2c2cccc(C3CCNCC3)c2)c1)OCc1ccccc1,5.51 µM
2,CN1Cc2ccc(NC(=O)c3cc(Cl)cc4[nH]ncc34)cc2C1,> 99.5 µM
3,Cc1ccc(NC(=O)c2cc(Cl)cc(NC(=O)OCc3ccccc3)c2)cc1CN,70.7 µM
4,NCc1cccc([C@H]2C[C@@H]2c2cc(Cl)cc(NC(=O)OCc3ccccc3)c2)c1,7.94 µM
5,C=CC[C@H]1NCc2cc(N[C@H](C(=O)NC(C)C)c3cc(Cl)cc4[nH]ncc34)ccc21,> 99.5 µM
6,O=C(NCC(F)F)[C@H](Nc1ccc2c(c1)CNC2)c1cc(F)cc2[nH]ccc12,> 99.5 µM
7,NCc1ccc([C@H]2C[C@@H]2c2cc(Cl)cc(NC(=O)OCc3ccccc3)c2)cc1,6.87 µM
8,CC(C)NC(=O)[C@H](Nc1ccc2c(c1)CNC2)c1cc(Cl)cc2[nH]ncc12,49.8 µM
